Assay results taken from US11285156B2, “Substituted piperazines as KRAS G12C inhibitors” (Amgen Inc., priority 2018, dated 2022).
Read-outs that look alike come from different tables or passages of the source.

Experiments:
[1] = test system: Phosphorylation of ERK1/2 in MIA PaCa-2 cells; experiment: Phospho-ERK1/2 MSD assay in MIA PaCa-2 cells; format: cell-based; settings: read-out: p-ERK IC50 (2 h, MiaPaCa-2; μM), 2 h compound treatment, MIA PaCa-2 cells, EGF stimulated
Description: (§1) Phospho-ERK1/2 MSD Assay:
(§2) Sixteen hours prior to compound treatment, MIA PaCa-2 or A549 cells were seeded in 96-well cell culture plates at a density of 25,000 cells/well and incubated at 37° C., 5% CO2. A compound dose-response titration was diluted in growth media, added to appropriate wells of a cell culture plate, and then incubated at 37° C., 5% CO2 for 2 or 4 hours (see Table 15). Following compound treatment, cells were stimulated with 10 ng/mL EGF (Roche 11376454001) for 10 min, washed with ice-cold Dulbecco's phosphate-buffered saline, no Ca2+ or Mg2+ (ThermoFisher Scientific 14190144), and then lysed in RIPA buffer (50 mM Tris-HCl pH 7.5, 1% Igepal, 0.5% sodium deoxycholate, 150 mM NaCl. and 0.5% sodium dodecyl sulfate) containing protease inhibitors (Roche 4693132001) and phosphatase inhibitors (Roche 4906837001). Phosphorylation of ERK1/2 in compound-treated lysates was assayed using Phospho-ERK1/2 Whole Cell Lysate kits (Meso Scale Discovery K151DWD) according to the manufacturer's protocol.

[2] = test system: Phosphorylation of ERK1/2 in A549 cells; experiment: Phospho-ERK1/2 MSD assay in A549 cells; format: cell-based; settings: Homo sapiens, A549, 2 h, read-out: p-ERK IC50 (2 h, A549; μM)
Description: as §1
as §2, with “MIA PaCa-2 (ATCC® CRL-1420™) and A549 (ATCC® CCL-185™) cells were cultured in RPMI 1640 Medium (ThermoFisher Scientific 11875093) containing 10% fetal bovine serum (ThermoFisher Scientific 16000044) and 1× penicillin-streptomycin-glutamine (ThermoFisher Scientific 10378016). Sixteen” for “Sixteen”

[3] = target: GDP-bound KRAS protein (aa 1-169), containing both G12C and C118A amino acid substitutions (Homo sapiens (Human), UniProt P01116, C118A/G12C); experiment: Coupled nucleotide exchange assay (SOS-mediated nucleotide exchange, AlphaScreen); format: biochemical; settings: 5 min compound pre-incubation; for IC50: read-out: Coupled exchange IC50 (5 min; μM)
Description: Coupled Nucleotide Exchange Assay:
Following compound pre-incubation, purified SOS protein (aa 564-1049) and GTP (Roche 10106399001) were added to the assay wells and incubated for an additional 30 min (for 5 min compound pre-incubation) or 1 hour (for 2 hour compound pre-incubation). […] The assay plates were then read on a PerkinElmer EnVision Multilabel Reader, using AlphaScreen® technology, and data were analyzed using a 4-parameter logistic model to calculate IC50 values.

[4] = 2 h compound treatment, A549 cells, EGF stimulated

GDP-bound KRAS protein (aa 1-169), containing both G12C and C118A amino acid substitutions, sequence (P01116 other isoform, or with tags, fused parts or gaps G12C/C118A): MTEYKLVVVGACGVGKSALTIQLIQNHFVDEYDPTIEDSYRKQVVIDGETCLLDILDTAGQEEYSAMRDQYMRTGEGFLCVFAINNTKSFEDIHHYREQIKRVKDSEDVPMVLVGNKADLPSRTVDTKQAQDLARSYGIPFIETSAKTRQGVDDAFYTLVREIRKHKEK

## C=CC(=O)N1C[C@H](C)N(c2nc(=O)n(-c3c(C)ccnc3C(C)C)c3nc(-c4cscc4C)c(Cl)cc23)C[C@H]1C (atropisomer, axis not shown; (M)) [Example 92-5, (M)-6-Chloro-4-[(2S,5R)-2,5-dimethyl-4-prop-2-enoyl-piperazin-1-yl]-1-(2-isopropyl-4-methyl-3-pyridyl)-7-(4-methyl-3-thienyl)pyrido[2,3-d]pyrimidin-2-one]
[1]; Homo sapiens, MIA PaCa-2, 2 h
  IC50: 0.119 µM
[2]; [4]
  IC50: > 7.5 µM

## C=CC(=O)N1[C@H](C)CN(c2nc(=O)n(-c3c(C)cc(N)nc3C(C)C)c3nc(-c4c(N)cccc4F)c(F)cc23)C[C@@H]1C (single isomer, unassigned) [Example 123-5]
[3]
  IC50: 7.53 µM
[1]
  IC50: 10 µM

## C=CC(=O)N1C[C@H](C)N(c2nc(=O)n3c4nc(c(Cl)cc24)-c2ccccc2C/C=C/Cc2cccc(C(C)C)c2-3)C[C@H]1C (single isomer, unassigned) [Example 146-2-1]
[3]
  IC50: 0.025 µM
[1]
  IC50: 0.024 µM

## C=CC(=O)N1C[C@H](C)N(c2nc(=O)n(-c3c(N(C)C)ccnc3C(C)C)c3nc(-c4c(F)cccc4NC(=O)CC)c(Cl)cc23)C[C@H]1C [Example 122-2, N-[2-[6-Chloro-1-[4-(dimethylamino)-2-isopropyl-3-pyridyl]-4-[(2S,5R)-2,5-dimethyl-4-prop-2-enoyl-piperazin-1-yl]-2-oxo-pyrido[2,3-d]pyrimidin-7-yl]-3-fluoro-phenyl]propanamide]
[3]
  IC50: 0.357 µM
[1]; Homo sapiens, MIA PaCa-2, 2 h
  IC50: 1.21 µM

## C=CC(=O)N1C[C@H](C)N(c2nc(=O)n(-c3c(C(C)C)nc(-c4ccoc4)nc3C(C)C)c3nc(-c4ccccc4F)c(Cl)cc23)C[C@H]1C [Example 171, 6-Chloro-4-[(2S,5R)-2,5-dimethyl-4-prop-2-enoyl-piperazin-1-yl]-7-(2-fluorophenyl)-1-[2-(3-furyl)-4,6-diisopropyl-pyrimidin-5-yl]pyrido[2,3-d]pyrimidin-2-one]
[3]
  IC50: 0.206 µM

## C=CC(=O)N1C[C@H](C)N(c2nc(=O)n(-c3c(C(C)C)cnc(C)c3C)c3nc(-c4ccccc4F)c(Cl)cc23)C[C@H]1C [Example 179, 4-((2S,5R)-4-Acryloyl-2,5-dimethylpiperazin-1-yl)-6-chloro-7-(2-fluorophenyl)-1-(5-isopropyl-2,3-dimethylpyridin-4-yl)pyrido[2,3-d]pyrimidin-2(1H)-one]
[2]; [4]
  IC50: > 7.5 µM

## C=CC(=O)N1CCN(c2nc(=O)n(CC(C)(C)O)c3nc(-c4ccccc4F)c(Cl)cc23)CC1 [Example 180, 4-(4-Acryloylpiperazin-1-yl)-6-chloro-7-(2-fluorophenyl)-1-(2-hydroxy-2-methylpropyl)pyrido[2,3-d]pyrimidin-2(1H)-one]
[3]
  Coupled exchange IC50 (5 min; μM): 85.1 µM
[1]; Homo sapiens, MIA PaCa-2, 2 h
  IC50: 10 µM

## C=CC(=O)N1C[C@H](C)N(c2nc(=O)n(-c3c(C(C)C)cc(N4CCC4)nc3C(C)C)c3nc(-c4ccccc4F)c(Cl)cc23)C[C@H]1C [Example 182, 4-((2S,5R)-4-Acryloyl-2,5-dimethylpiperazin-1-yl)-1-(6-(azetidin-1-yl)-2,4-diisopropylpyridin-3-yl)-6-chloro-7-(2-fluorophenyl)pyrido[2,3-d]pyrimidin-2(1H)-one]
[3]
  Coupled exchange IC50 (5 min; μM): 8.794 µM

## C=CC(=O)N1C[C@H](C)N(c2nc(=O)n(-c3c(C)cc(CN(C)C)cc3C(C)C)c3nc(-c4c(N)cccc4F)c(F)cc23)C[C@H]1C [Example 184, 4-((2S,5R)-4-Acryloyl-2,5-dimethylpiperazin-1-yl)-7-(2-amino-6-fluorophenyl)-1-(4-((dimethylamino)methyl)-2-isopropyl-6-methylphenyl)-6-fluoropyrido[2,3-d]pyrimidin-2(1H)-one]
[3]
  IC50: 2.81 µM

## C=CC(=O)N1C[C@H](C)N(c2nc(=O)n(-c3c(C)nc(C)nc3C(C)C)c3nc(-c4ccccc4F)c(C)cc23)C[C@H]1C [Example 195, 4-((2S,5R)-4-Acryloyl-2,5-dimethylpiperazin-1-yl)-7-(2-fluorophenyl)-1-(4-isopropyl-2,6-dimethylpyrimidin-5-yl)-6-methylpyrido[2,3-d]pyrimidin-2(1H)-one]
[3]
  IC50: 0.488 µM

## C=CC(=O)N1[C@H](C)CN(c2nc(=O)n(-c3c(C(C)C)cnnc3C(C)C)c3nc(-c4ccccc4F)c(Cl)cc23)C[C@@H]1C [Example 206-1, 4-(cis-4-Acryloyl-3,5-dimethylpiperazin-1-yl)-6-chloro-1-(3,5-diisopropylpyridazin-4-yl)-7-(2-fluorophenyl)pyrido[2,3-d]pyrimidin-2(1H)-one]
[3]
  Coupled exchange IC50 (5 min; μM): 0.143 µM

## C=CC(=O)N1C[C@H](C)N(c2nc(=O)n(-c3c(C)cc(S(C)(=O)=O)cc3C(C)C)c3nc(-c4ccccc4F)c(Cl)cc23)C[C@H]1C [Example 215, 4-((2S,5R)-4-Acryloyl-2,5-dimethylpiperazin-1-yl)-6-chloro-7-(2-fluorophenyl)-1-(2-isopropyl-6-methyl-4-(methylsulfonyl)phenyl)pyrido[2,3-d]pyrimidin-2(1H)-one]
[3]
  IC50: 0.076 µM
[1]; Homo sapiens, MIA PaCa-2, 2 h
  IC50: 0.275 µM

## C=CC(=O)N1C[C@H](C)N(C2=NC(=O)CN(CC(C)(C)C)c3nc(-c4ccccc4F)c(Cl)cc32)C[C@H]1C [Example 217, 5-((2S,5R)-4-Acryloyl-2,5-dimethylpiperazin-1-yl)-7-chloro-8-(2-fluorophenyl)-1-neopentyl-1,2-dihydro-3H-pyrido[2,3-e][1,4]diazepin-3-one]
[2]
  IC50: > 7.5 µM

## C=CC(=O)N1C[C@H](C)N(C2=NCC(=O)N(c3c(C)ccnc3C(C)C)c3nc(-c4ccccc4F)c(Cl)cc32)C[C@H]1C [Example 219, 5-((2S,5R)-4-Acryloyl-2,5-dimethylpiperazin-1-yl)-7-chloro-8-(2-fluorophenyl)-1-(2-isopropyl-4-methylpyridin-3-yl)-1,3-dihydro-2H-pyrido[2,3-e][1,4]diazepin-2-one]
[3]
  IC50: 250 µM

## C=CC(=O)N1C[C@H](C)N(C2=NCC(=O)N(CC(C)(C)C)c3nc(-c4ccccc4F)c(Cl)cc32)C[C@H]1C [Example 220, 5-((2S,5R)-4-Acryloyl-2,5-dimethylpiperazin-1-yl)-7-chloro-8-(2-fluorophenyl)-1-neopentyl-1,3-dihydro-2H-pyrido[2,3-e][1,4]diazepin-2-one]
[3]
  IC50: 250 µM

## C=CC(=O)N1CCN(c2c(C(N)=O)c(=O)n(-c3c(C)ccnc3C(C)C)c3nc(-c4ccccc4F)c(Cl)cc23)CC1 [Example 221, 4-(4-Acryloylpiperazin-1-yl)-6-chloro-7-(2-fluorophenyl)-1-(2-isopropyl-4-methylpyridin-3-yl)-2-oxo-1,2-dihydro-1,8-naphthyridine-3-carboxamide]
[3]
  IC50: 1.26 µM

## C=CC(=O)N1[C@H](C)CN(c2nc(=O)n(-c3c(C)ccnc3C(C)C)c3nc(-c4ccccc4F)c(Cl)nc23)C[C@@H]1C [Example 224, 4-((3R,5S)-4-Acryloyl-3,5-dimethylpiperazin-1-yl)-6-chloro-7-(2-fluorophenyl)-1-(2-isopropyl-4-methylpyridin-3-yl)pteridin-2(1H)-one]
[3]
  IC50: 7.62 µM

## C=CC(=O)N1CCN(c2nc(=O)n(-c3c(C)ccnc3C(C)C)c3nc(-c4c(C)ccc5c4CC(=O)N5)c(Cl)cc23)[C@@H](C)C1 [Example 228, 4-((S)-4-Acryloyl-2-methylpiperazin-1-yl)-6-chloro-1-(2-isopropyl-4-methylpyridin-3-yl)-7-(5-methyl-2-oxoindolin-4-yl)pyrido[2,3-d]pyrimidin-2(1H)-one]
[3]
  Coupled exchange IC50 (5 min; μM): 0.769 µM

## C=CC(=O)N1C[C@H](C)N(c2nc(=O)n(-c3c(C)cc([S+](C)[O-])cc3C(C)C)c3nc(-c4ccccc4F)c(Cl)cc23)C[C@@H]1C (stereo partly shown) [compound 216]
[3]
  IC50: 2.01 µM
